Source: the NIST ThermoML archive (doi:10.1021/acs.jced.8b00692)

Assay: xn = mol fraction of the nth substance listed
Conditions: 102 kPa, Liquid; for viscosity: Concentric cylinders viscometry; for speed of sound: Frequency=3 MHz, Single path-length method; for mass density: Vibrating tube method

CCCCCCCC1CCCCC1 [heptylcyclohexane] + CCCCCCCCCCCCCCCC
Conditions | mass density [kg/m3] | speed of sound [m/s] | viscosity [mPa·s]
293.15 K, x1 = 0.1997 | 779.33 | 1358.9 | 3.34
293.15 K, x1 = 0.4002 | 785.92 | 1362 | 3.2
293.15 K, x1 = 0.5001 | 789.55 | 1363.4 | 3.13
293.15 K, x1 = 0.6006 | 793.34 | 1365.3 | 3.05
293.15 K, x1 = 0.7998 | 801.63 | 1368.8 | 2.92
293.15 K, x1 = 1 | 810.99 | 1374.4 | 2.8
303.15 K, x1 = 0.1997 | 772.4 | 1321.7 | 2.66
303.15 K, x1 = 0.4002 | 778.99 | 1324.4 | 2.56
303.15 K, x1 = 0.5001 | 782.6 | 1326.1 | 2.51
303.15 K, x1 = 0.6006 | 786.39 | 1327.5 | 2.45
303.15 K, x1 = 0.7998 | 794.64 | 1331.3 | 2.35
303.15 K, x1 = 1 | 803.96 | 1336.1 | 2.26
313.15 K, x1 = 0.1997 | 765.47 | 1285.1 | 2.17
313.15 K, x1 = 0.4002 | 772.06 | 1287.5 | 2.08
313.15 K, x1 = 0.5001 | 775.66 | 1289.4 | 2.05
313.15 K, x1 = 0.6006 | 779.44 | 1290.6 | 2.01
313.15 K, x1 = 0.7998 | 787.98 | 1294.3 | 1.93
313.15 K, x1 = 1 | 796.93 | 1298.7 | 1.86
323.15 K, x1 = 0.1997 | 758.54 | 1249.3 | 1.8
323.15 K, x1 = 0.4002 | 765.13 | 1251.5 | 1.73
323.15 K, x1 = 0.5001 | 768.71 | 1253.4 | 1.71
323.15 K, x1 = 0.6006 | 772.48 | 1254.5 | 1.67
323.15 K, x1 = 0.7998 | 780.65 | 1258.1 | 1.61
323.15 K, x1 = 1 | 789.89 | 1262.1 | 1.56
333.15 K, x1 = 0.1997 | 751.62 | 1214.4 | 1.52
333.15 K, x1 = 0.4002 | 758.19 | 1216.7 | 1.46
333.15 K, x1 = 0.5001 | 761.75 | 1218.2 | 1.45
333.15 K, x1 = 0.6006 | 765.51 | 1219.4 | 1.42
333.15 K, x1 = 0.7998 | 773.64 | 1222.8 | 1.37
333.15 K, x1 = 1 | 782.83 | 1226.5 | 1.33
343.15 K, x1 = 0.1997 | 744.7 | – | 1.31
343.15 K, x1 = 0.4002 | 751.3 | – | 1.25
343.15 K, x1 = 0.5001 | 754.8 | – | 1.25
343.15 K, x1 = 0.6006 | 758.6 | – | 1.22
343.15 K, x1 = 0.7998 | 766.7 | – | 1.18
343.15 K, x1 = 1 | 775.8 | – | 1.15
353.15 K, x1 = 0.1997 | 737.7 | – | 1.12
353.15 K, x1 = 0.4002 | 744.3 | – | 1.09
353.15 K, x1 = 0.5001 | 747.8 | – | 1.07
353.15 K, x1 = 0.6006 | 751.6 | – | 1.06
353.15 K, x1 = 0.7998 | 759.6 | – | 1.03
353.15 K, x1 = 1 | 768.7 | – | 0.993
363.15 K, x1 = 0.1997 | 730.8 | – | 1
363.15 K, x1 = 0.4002 | 737.8 | – | 0.954
363.15 K, x1 = 0.5001 | 740.7 | – | 0.962
363.15 K, x1 = 0.6006 | 744.5 | – | 0.932
363.15 K, x1 = 0.7998 | 752.6 | – | 0.903
363.15 K, x1 = 1 | 761.6 | – | 0.892
373.15 K, x1 = 0.1997 | 723.7 | – | 0.866
373.15 K, x1 = 0.4002 | 730.3 | – | 0.845
373.15 K, x1 = 0.5001 | 733.7 | – | 0.834
373.15 K, x1 = 0.6006 | 737.5 | – | 0.827
373.15 K, x1 = 0.7998 | 745.4 | – | 0.803
373.15 K, x1 = 1 | 754.4 | – | 0.776

CCCCCCC1CCCCC1 [hexylcyclohexane] + CCCCCCCCCCCCCCCC
Conditions | mass density [kg/m3] | speed of sound [m/s] | viscosity [mPa·s]
293.15 K, x1 = 0.1003 | 775.83 | 1357.1 | 3.35
293.15 K, x1 = 0.2002 | 778.43 | 1356.8 | 3.21
293.15 K, x1 = 0.2996 | 781.19 | 1356.9 | 3.09
293.15 K, x1 = 0.4192 | 784.77 | 1357 | 2.93
293.15 K, x1 = 0.5004 | 787.39 | 1357.1 | 2.82
293.15 K, x1 = 0.603 | 790.94 | 1357.4 | 2.7
293.15 K, x1 = 0.8003 | 798.59 | 1358.6 | 2.44
293.15 K, x1 = 1 | 807.71 | 1361 | 2.2
303.15 K, x1 = 0.1003 | 768.88 | 1319.8 | 2.66
303.15 K, x1 = 0.2002 | 771.48 | 1319.5 | 2.57
303.15 K, x1 = 0.2996 | 774.23 | 1319.6 | 2.47
303.15 K, x1 = 0.4192 | 777.8 | 1319.6 | 2.36
303.15 K, x1 = 0.5004 | 780.41 | 1319.7 | 2.28
303.15 K, x1 = 0.603 | 783.93 | 1319.8 | 2.19
303.15 K, x1 = 0.8003 | 791.52 | 1320.7 | 2
303.15 K, x1 = 1 | 800.56 | 1322.1 | 1.81
313.15 K, x1 = 0.1003 | 761.95 | 1283.2 | 2.17
313.15 K, x1 = 0.2002 | 764.54 | 1282.8 | 2.1
313.15 K, x1 = 0.2996 | 767.28 | 1282.9 | 2.02
313.15 K, x1 = 0.4192 | 770.83 | 1282.8 | 1.94
313.15 K, x1 = 0.5004 | 773.42 | 1282.9 | 1.87
313.15 K, x1 = 0.603 | 776.92 | 1282.9 | 1.8
313.15 K, x1 = 0.8003 | 784.45 | 1283.5 | 1.65
313.15 K, x1 = 1 | 793.4 | 1284.2 | 1.51
323.15 K, x1 = 0.1003 | 755.02 | 1247.3 | 1.8
323.15 K, x1 = 0.2002 | 757.6 | 1246.9 | 1.75
323.15 K, x1 = 0.2996 | 760.32 | 1246.9 | 1.68
323.15 K, x1 = 0.4192 | 763.85 | 1246.7 | 1.62
323.15 K, x1 = 0.5004 | 766.42 | 1246.7 | 1.57
323.15 K, x1 = 0.603 | 769.89 | 1246.6 | 1.52
323.15 K, x1 = 0.8003 | 777.35 | 1246.9 | 1.4
323.15 K, x1 = 1 | 786.22 | 1247.1 | 1.29
333.15 K, x1 = 0.1003 | 748.09 | 1212.3 | 1.51
333.15 K, x1 = 0.2002 | 750.65 | 1211.9 | 1.47
333.15 K, x1 = 0.2996 | 753.35 | 1211.7 | 1.42
333.15 K, x1 = 0.4192 | 756.86 | 1211.5 | 1.37
333.15 K, x1 = 0.5004 | 759.41 | 1211.4 | 1.33
333.15 K, x1 = 0.603 | 762.86 | 1211.2 | 1.29
333.15 K, x1 = 0.8003 | 770.24 | 1211.1 | 1.2
333.15 K, x1 = 1 | 779.02 | 1211 | 1.09
343.15 K, x1 = 0.1003 | 741.2 | – | 1.29
343.15 K, x1 = 0.2002 | 743.7 | – | 1.27
343.15 K, x1 = 0.2996 | 746.5 | – | 1.22
343.15 K, x1 = 0.4192 | 749.9 | – | 1.18
343.15 K, x1 = 0.5004 | 752.4 | – | 1.15
343.15 K, x1 = 0.603 | 755.9 | – | 1.13
343.15 K, x1 = 0.8003 | 763.1 | – | 1.05
343.15 K, x1 = 1 | 771.8 | – | 0.964
353.15 K, x1 = 0.1003 | 734.2 | – | 1.12
353.15 K, x1 = 0.2002 | 736.7 | – | 1.09
353.15 K, x1 = 0.2996 | 739.5 | – | 1.06
353.15 K, x1 = 0.4192 | 742.9 | – | 1.02
353.15 K, x1 = 0.5004 | 745.4 | – | 1
353.15 K, x1 = 0.603 | 748.8 | – | 0.971
353.15 K, x1 = 0.8003 | 756 | – | 0.919
353.15 K, x1 = 1 | 764.6 | – | 0.847
363.15 K, x1 = 0.1003 | 727.3 | – | 0.981
363.15 K, x1 = 0.2002 | 729.7 | – | 0.977
363.15 K, x1 = 0.2996 | 732.5 | – | 0.931
363.15 K, x1 = 0.4192 | 735.9 | – | 0.901
363.15 K, x1 = 0.5004 | 738.3 | – | 0.88
363.15 K, x1 = 0.603 | 741.7 | – | 0.873
363.15 K, x1 = 0.8003 | 748.8 | – | 0.817
363.15 K, x1 = 1 | 757.3 | – | 0.758
